Patent US20100166727A1, “S-Adenosylmethionine And Methylthioadensosine In Chemoprevention And Treatment Of Colon Polyps And Cancer” (UNIVERSITY OF SOUTHERN CALIFORNIA, priority 2007, published 2010)
Entries after “also recorded” stand apart in the source; their conditions may differ.

Legend:
RKO cells = assay: Apoptosis in RKO cells (HOECHST staining, Annexin V); type: cell-based, human; details: by 24 hrs, RKO cells
Method: Apoptosis was assessed by HOECHST staining (34). Briefly, RKO cells were grown on coverslips and treated with RNAi#1 for 24 hrs and cells were fixed with paraformaldehyde and stained with 8 μg/ml HOECHST 33258 dye for 30 min. Cells with bright, fragmented, condensed nuclei were identified as apoptotic cells using the Nikon Eclipse TE300 fluorescent microscope. At least 5 random fields (at ×300) were counted.
(§1) In these experiments the total treatment duration was limited to 16 hrs to avoid the apoptotic effect. […] Apoptosis was measured by Hoechst staining or Annexin V and propidium iodide staining on flow cytometry.

SPD syn = SPD syn expression by real-time PCR in HT-29 cells; type: cell-based, human; details: 6 hrs
[1] = Intestinal SAMe levels in mice given SAMe or MTA in drinking water; details: mouse, in vivo
Method: Three-month old male C57/B6 mice were fed ad libitum a standard diet (Harland Tekiad irradiated mouse diet 7912, Madison, Wis.), caged individually and had free access to water supplemented with SAMe ([…]), MTA (75 mg/kg/d), phosphate buffered saline (vehicle for SAMe) or DMSO (0.2%, vehicle for MTA) for 6 days. SAMe and MTA were made fresh daily. The amount of water intake, body weight, and animal behavior were closely monitored. After 6 days, animals were sacrificed, intestine was cut open along the longitudinal axis, and mucosa was stripped from the intestine (46). Mucosa was weighed and a portion processed for SAMe measurement as described below, the rest snap frozen for subsequent RNA extraction.
Cellular SAMe and MTA levels were measured (51) and polyamine levels were determined (52).

NCM460 cells = assay: Toxicity and apoptosis in NCM460 normal colonic epithelial cells; type: cell-based, human
Method: as §1

[2] = Tolerability of oral SAMe and MTA in mice; type: in vivo; details: oral in drinking water, 6 days; weight gain and water consumption similar to controls
From the text: SAMe and MTA were made fresh daily. The amount of water intake, body weight, and animal behavior were closely monitored. After 6 days, animals were sacrificed, intestine was cut open along the longitudinal axis, and mucosa was stripped from the intestine (46). Mucosa was weighed and a portion processed for SAMe measurement as described below, the rest snap frozen for subsequent RNA extraction.

With C[S+](CC[C@H](N)C(=O)O)C[C@H]1O[C@@H](n2cnc3c(N)ncnc32)[C@H](O)[C@@H]1O (stereo partly shown) [SAMe, S-adenosylmethionine] the apoptosis (RKO cells) was “induced apoptosis in a dose-dependent manner”, the SPD syn expression (SPD syn; SAMe 2 mM) was 1.1 ± 0.02 fold of control and the SPD syn expression (SPD syn; SAMe 5 mM) was 0.8 ± 0.02 fold of control. For the same compound, the “SAMe level in proximal small intestine” value [1] was 800 % of control, the “increase in SAMe level in colonic mucosa” value [1] was roughly 200% and the “menadione (MQ)-induced toxicity in NCM460 cells” value (NCM460 cells) was “protected against menadione (MQ)-induced toxicity”. The tolerability / toxicity [2] was “well tolerated; also recorded: no apparent toxicity”.
